Laboratory results published in patent publication US20240358692A1, “TREATMENT OF SCLERODERMA” (Aisa Pharma, Inc., priority 2023, published 2024).

Tested on: participants with SSc-RP
Assay: Frequency of weekly RP attacks (all attacks; primary endpoint), patient diary
Format: in vivo, human
Conditions: for Weekly RP Attacks (All Attacks) Percent Change from Baseline, Mean / Weekly RP Attacks (All Attacks) Percent Change from Baseline, Median / Weekly RP Attacks (All Attacks), Mean / Weekly RP Attacks (All Attacks), Median / Weekly RP Attacks (All Attacks) Change from Baseline, Mean / Weekly RP Attacks (All Attacks) Change from Baseline, Median: ITT Part A; for reduction in weekly frequency of attacks: typical Raynaud attacks
Source text: Percent change from baseline evaluation for frequency of weekly RP attacks were or will be used as the primary efficacy variable. The sponsor-developed participant-informed diary will be used to record data. Frequency of weekly RP attacks is defined as the total number of RP attacks divided by the number of days with available diary data within the last 7 days of each dosing period then multiplied by 7. Total number of RP attacks during the last 7 days of screening period divided by the number of days with available data then multiplied by 7 will be used as baseline for the analysis of all periods. The variable will be calculated as follows: […]
Percent change from baseline evaluation for frequency of weekly RP attacks was and will be the primary efficacy endpoint. Frequency of weekly RP attacks is defined as the total number of RP attacks divided by the number of days with available diary data within the last 7 days of each dosing period then multiplied by 7. Total number of RP attacks during the last 7 days of screening period divided by the number of days with available data then multiplied by 7 will be used as baseline for the analysis of all periods.

[1] = Pooled Cilnidipine 20 mg and Cilnidipine 20 mg + Tadalafil 5 mg, Excluding Outliers, Baseline RCS stratum 1 (upper half of table)
[2] = Pooled Cilnidipine 20 mg and Cilnidipine 20 mg + Tadalafil 5 mg, Excluding Outliers, Baseline RCS stratum 2 (lower half of table)
[3] = Pooled Cilnidipine 20 mg and Cilnidipine 20 mg + Tadalafil 5 mg, n=4, excluding outliers, last 7 days of dosing
[4] = Pooled Cilnidipine 20 mg and Cilnidipine 20 mg + Tadalafil 5 mg, n=4, last 7 days of dosing
[5] = Pooled Cilnidipine arms, n=3, excluding outliers, last 7 days of dosing
[6] = Pooled Cilnidipine arms, n=3, last 7 days of dosing
[7] = Pooled Cilnidipine, Baseline RCS stratum 1 (upper half of table)
[8] = Pooled Cilnidipine, Excluding Outliers, Baseline RCS stratum 1 (upper half of table)
[9] = cilnidipine 10 mg daily, n=1, excluding outliers, last 7 days of dosing
[10] = cilnidipine 10 mg daily, n=1, last 7 days of dosing
[11] = cilnidipine 20 mg daily, n=2, excluding outliers, last 7 days of dosing
[12] = cilnidipine 20 mg daily, n=2, last 7 days of dosing

COCCOC(=O)C1=C(C)NC(C)=C(C(=O)OC/C=C/c2ccccc2)C1c1cccc([N+](=O)[O-])c1 (stereo not drawn) [Cilnidipine]
Weekly RP Attacks (All Attacks) Percent Change from Baseline, Mean [1]: −37.49% | Weekly RP Attacks (All Attacks) Percent Change from Baseline, Median [1]: −45.00% | Weekly RP Attacks (All Attacks), Mean [1]: 10.33 | Weekly RP Attacks (All Attacks), Median [1]: 11.00 | Weekly RP Attacks (All Attacks) Change from Baseline, Mean [2]: −1.83 | Weekly RP Attacks (All Attacks) Change from Baseline, Median [2]: −1.83 | Weekly RP Attacks (All Attacks) Percent Change from Baseline, Mean [2]: −14.29% | Weekly RP Attacks (All Attacks) Percent Change from Baseline, Median [2]: −14.29% | Weekly RP Attacks (All Attacks), Mean [2]: 11.00 | Weekly RP Attacks (All Attacks), Median [2]: 11.00 | Weekly RP Attacks (All Attacks) Change from Baseline, Mean [3]: −4.79 | Weekly RP Attacks (All Attacks) Change from Baseline, Median [3]: −4.17 | Weekly RP Attacks (All Attacks) Percent Change from Baseline, Mean [3]: −31.69% | Weekly RP Attacks (All Attacks) Percent Change from Baseline, Median [3]: −33.03% | Weekly RP Attacks (All Attacks), Mean [3]: 10.50 | Weekly RP Attacks (All Attacks), Median [3]: 11.00 | Weekly RP Attacks (All Attacks) Change from Baseline, Mean [4]: −4.79 | Weekly RP Attacks (All Attacks) Change from Baseline, Median [4]: −4.17 | Weekly RP Attacks (All Attacks) Percent Change from Baseline, Mean [4]: −31.69% | Weekly RP Attacks (All Attacks) Percent Change from Baseline, Median [4]: −33.03% | Weekly RP Attacks (All Attacks), Mean [4]: 10.50 | Weekly RP Attacks (All Attacks), Median [4]: 11.00 | Weekly attack frequency (change) (Pooled Cilnidipine (n = 7)): −41% | Weekly RP Attacks (All Attacks) Change from Baseline, Mean [5]: −7.44 | Weekly RP Attacks (All Attacks) Change from Baseline, Median [5]: −9.00 | Weekly RP Attacks (All Attacks) Percent Change from Baseline, Mean [5]: −39.85% | Weekly RP Attacks (All Attacks) Percent Change from Baseline, Median [5]: −45.00% | Weekly RP Attacks (All Attacks), Mean [5]: 13.00 | Weekly RP Attacks (All Attacks), Median [5]: 11.00 | Weekly RP Attacks (All Attacks) Change from Baseline, Median [6]: −9.00 | Weekly RP Attacks (All Attacks) Percent Change from Baseline, Median [6]: −45.00% | Weekly RP Attacks (All Attacks), Mean [6]: 13.00 | Weekly RP Attacks (All Attacks), Median [6]: 11.00 | Weekly RP Attacks (All Attacks) Change from Baseline, Mean [7]: −7.44 | Weekly RP Attacks (All Attacks) Change from Baseline, Median [7]: −9.00 | Weekly RP Attacks (All Attacks) Percent Change from Baseline, Mean [7]: −39.85% | Weekly RP Attacks (All Attacks) Percent Change from Baseline, Median [7]: −45.00% | Weekly RP Attacks (All Attacks), Mean [7]: 13.00 | Weekly RP Attacks (All Attacks), Median [7]: 11.00 | Weekly RP Attacks (All Attacks) Change from Baseline, Mean [8]: −7.44 | Weekly RP Attacks (All Attacks) Change from Baseline, Median [8]: −9.00 | Weekly RP Attacks (All Attacks) Percent Change from Baseline, Mean [8]: −39.85% | Weekly RP Attacks (All Attacks) Percent Change from Baseline, Median [8]: −45.00% | Weekly RP Attacks (All Attacks), Mean [8]: 13.00 | Weekly RP Attacks (All Attacks), Median [8]: 11.00 | Weekly RP Attacks (All Attacks) Change from Baseline, Mean [9]: −9.00 | Weekly RP Attacks (All Attacks) Change from Baseline, Median [9]: −9.00 | Weekly RP Attacks (All Attacks), Mean [9]: 23.00 | Weekly RP Attacks (All Attacks), Median [9]: 23.00 | Weekly RP Attacks (All Attacks) Change from Baseline, Mean [10]: −9.00 | Weekly RP Attacks (All Attacks) Change from Baseline, Median [10]: −9.00 | Weekly RP Attacks (All Attacks), Mean [10]: 23.00 | Weekly RP Attacks (All Attacks), Median [10]: 23.00 | Weekly RP Attacks (All Attacks) Change from Baseline, Mean [11]: −6.67 | Weekly RP Attacks (All Attacks) Change from Baseline, Median [11]: −6.67 | Weekly RP Attacks (All Attacks) Percent Change from Baseline, Mean [11]: −45.71% | Weekly RP Attacks (All Attacks) Percent Change from Baseline, Median [11]: −45.71% | Weekly RP Attacks (All Attacks), Mean [11]: 8.00 | Weekly RP Attacks (All Attacks), Median [11]: 8.00 | Weekly RP Attacks (All Attacks), Mean [12]: 8.00 | Weekly RP Attacks (All Attacks), Median [12]: 8.00 | reduction in weekly frequency of attacks (cilnidipine 10 mg (dose response, n=3)): 28% | reduction in weekly frequency of attacks (cilnidipine 20 mg (dose response, n=3)): 46%
